The test system of one test is Escherichia coli. The test is described as follows: Antibacterial activity against Escherichia coli FabH assessed as bacterial growth inhibition incubated for 24 hrs by MTT based ELISA analysis. The class given is functional, organism-based.
The subject of a further test is Staphylococcus aureus. The test is described as follows: Antibacterial activity against Staphylococcus aureus assessed as bacterial growth inhibition incubated for 24 hrs by MTT based ELISA analysis. The format is functional.
The next test has as its system Bacillus subtilis. The test is described as follows: Antibacterial activity against Bacillus subtilis assessed as bacterial growth inhibition incubated for 24 hrs by MTT based ELISA analysis. The format is functional.
The target in test [1] is Prostaglandin G/H synthase 1 (Homo sapiens, UniProt P23219). Kind of test: Inhibition of COX1 (unknown origin).
Prostaglandin G/H synthase 1, sequence (P23219 whole entry): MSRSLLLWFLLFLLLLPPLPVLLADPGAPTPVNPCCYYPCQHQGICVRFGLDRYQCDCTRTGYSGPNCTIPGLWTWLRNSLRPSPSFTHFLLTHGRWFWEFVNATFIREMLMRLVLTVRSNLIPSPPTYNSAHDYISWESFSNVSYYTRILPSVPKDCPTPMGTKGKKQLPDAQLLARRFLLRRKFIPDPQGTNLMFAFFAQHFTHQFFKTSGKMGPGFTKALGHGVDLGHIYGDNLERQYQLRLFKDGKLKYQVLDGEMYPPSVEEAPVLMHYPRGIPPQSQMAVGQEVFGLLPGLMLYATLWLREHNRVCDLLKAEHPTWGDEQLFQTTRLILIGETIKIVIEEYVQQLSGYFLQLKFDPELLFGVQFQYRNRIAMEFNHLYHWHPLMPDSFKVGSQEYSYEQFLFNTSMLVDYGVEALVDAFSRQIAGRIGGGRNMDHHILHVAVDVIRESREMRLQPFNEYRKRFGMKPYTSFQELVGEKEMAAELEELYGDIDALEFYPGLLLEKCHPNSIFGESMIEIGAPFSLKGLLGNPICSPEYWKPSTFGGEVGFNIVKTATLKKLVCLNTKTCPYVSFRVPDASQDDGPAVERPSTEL
Test [2] deals with T1, Prostaglandin G/H synthase 2 (Homo sapiens, UniProt P35354).
T1 sequence (P35354 whole entry): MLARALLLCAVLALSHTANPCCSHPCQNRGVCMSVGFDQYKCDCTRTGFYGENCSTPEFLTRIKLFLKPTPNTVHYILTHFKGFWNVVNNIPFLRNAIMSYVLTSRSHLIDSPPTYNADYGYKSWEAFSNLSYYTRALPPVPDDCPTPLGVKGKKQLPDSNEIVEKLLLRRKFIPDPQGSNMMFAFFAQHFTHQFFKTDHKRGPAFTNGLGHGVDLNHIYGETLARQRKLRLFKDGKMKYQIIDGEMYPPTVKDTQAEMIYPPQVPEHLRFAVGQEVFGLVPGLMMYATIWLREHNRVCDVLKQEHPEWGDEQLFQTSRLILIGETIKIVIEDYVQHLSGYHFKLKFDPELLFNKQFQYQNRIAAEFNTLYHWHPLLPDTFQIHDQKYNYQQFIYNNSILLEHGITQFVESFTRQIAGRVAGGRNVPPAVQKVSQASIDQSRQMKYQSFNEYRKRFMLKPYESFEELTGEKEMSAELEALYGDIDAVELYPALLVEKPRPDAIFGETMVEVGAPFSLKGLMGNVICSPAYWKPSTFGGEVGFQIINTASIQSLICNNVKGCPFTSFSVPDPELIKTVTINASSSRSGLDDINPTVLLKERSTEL
The test is described as follows: Inhibition of COX2 (unknown origin).

The next test deals with U-251. Kind of test: Anticancer activity against human U-251 cells assessed as cell growth inhibition incubated for 24 hrs by MTT assay. The class given is functional, cell-based. As to conditions: U-251, 24 h. (In general: Tetrazolium dyes change colour on reduction, which living cells bring about.)
Test [3] has as its target T2, Tyrosine-protein kinase JAK3 (Homo sapiens, UniProt P52333).
T2 sequence (P52333 whole entry): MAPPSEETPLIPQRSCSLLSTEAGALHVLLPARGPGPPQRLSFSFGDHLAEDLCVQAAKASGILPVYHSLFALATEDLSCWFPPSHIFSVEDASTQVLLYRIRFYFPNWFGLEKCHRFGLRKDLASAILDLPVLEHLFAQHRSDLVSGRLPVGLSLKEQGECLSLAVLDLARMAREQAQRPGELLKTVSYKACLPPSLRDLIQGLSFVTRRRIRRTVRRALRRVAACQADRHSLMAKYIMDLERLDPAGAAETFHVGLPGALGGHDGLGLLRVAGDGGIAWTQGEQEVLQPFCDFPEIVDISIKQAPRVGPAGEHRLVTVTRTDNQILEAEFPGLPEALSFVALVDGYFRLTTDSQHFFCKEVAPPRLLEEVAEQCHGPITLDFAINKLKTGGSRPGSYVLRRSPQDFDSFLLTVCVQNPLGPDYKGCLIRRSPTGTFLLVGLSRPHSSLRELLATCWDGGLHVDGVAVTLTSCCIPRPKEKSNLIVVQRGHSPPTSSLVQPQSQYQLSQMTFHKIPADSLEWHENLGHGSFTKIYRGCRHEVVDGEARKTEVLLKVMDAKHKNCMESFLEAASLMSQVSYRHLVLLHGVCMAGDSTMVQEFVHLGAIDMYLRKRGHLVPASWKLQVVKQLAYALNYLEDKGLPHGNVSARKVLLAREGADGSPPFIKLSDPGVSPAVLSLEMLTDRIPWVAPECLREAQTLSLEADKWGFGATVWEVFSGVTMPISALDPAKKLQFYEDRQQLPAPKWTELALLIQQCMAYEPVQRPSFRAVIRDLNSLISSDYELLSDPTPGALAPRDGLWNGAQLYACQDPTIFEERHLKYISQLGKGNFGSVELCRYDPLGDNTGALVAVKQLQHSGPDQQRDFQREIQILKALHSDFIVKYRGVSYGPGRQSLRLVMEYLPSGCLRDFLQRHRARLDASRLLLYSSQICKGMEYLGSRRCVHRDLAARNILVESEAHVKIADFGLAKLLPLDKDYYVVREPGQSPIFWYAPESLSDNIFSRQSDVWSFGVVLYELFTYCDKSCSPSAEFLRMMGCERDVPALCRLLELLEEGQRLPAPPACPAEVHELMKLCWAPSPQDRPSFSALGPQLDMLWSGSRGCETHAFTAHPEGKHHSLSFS
Kind of test: Inhibition of JAK3 (unknown origin) incubated for 20 mins.

A further test deals with A549. Kind of test: Anticancer activity against human A549 cells assessed as cell growth inhibition incubated for 24 hrs by MTT assay. The class given is functional, cell-based. To be noted: A549, 24 h.
Another test has as its system HeLa. The test is described as follows: Anticancer activity against human HeLa cells assessed as cell growth inhibition incubated for 24 hrs by MTT assay. The format is functional, cell-based.
A further test concerns HepG2. The test is described as follows: Anticancer activity against human HepG2 cells assessed as cell growth inhibition incubated for 24 hrs by MTT assay. The format is functional, cell-based. To be noted: HepG2, 24 h.

By IC50 is commonly meant the concentration at which inhibition is half-maximal. As a reminder, the MIC is the lowest concentration found to suppress growth.

Take `O=C(N/N=C/C=C/c1ccccc1[N+](=O)[O-])c1cccc2c1OCCO2`: the IC50 in the test on Escherichia coli worked out at 3500 nM. Also, the values for the MIC in the test with Staphylococcus aureus and in the test on Bacillus subtilis were 1.5 µg/mL and 6 µg/mL, respectively.
Turning to `COc1cc(C2Oc3cc(C=Cc4cc(O)cc(O)c4)ccc3OC2CO)cc(OC)c1O` (stereo not drawn), the IC50 was 1900 nM in test [1] and 9900 nM in test [2].
Consider `O=C(CN1CCN(c2ccccn2)CC1)N1C(=O)S/C(=C\c2ccc3c(c2)OCCO3)C1=O`, for which, in the test on Escherichia coli, the IC50 came out at 60 nM. Besides, the MIC in the test with Staphylococcus aureus and in the test with Bacillus subtilis was 1.5 µM in each case.
For the compound `O=C(OCCn1c([N+](=O)[O-])cnc1/C=C/c1ccc(Cl)cc1Cl)c1ccc2c(c1)OCCO2`, the concentration for half-maximal inhibition (IC50) in the test on U-251 amounted to 44 nM; in test [3], 9 nM; in the test on A549 it was 65 nM; in the test with HeLa it was 21 nM; with HepG2, 16 nM.

The record behind these values is ChEMBL document CHEMBL5244242, “1,4-Benzodioxane, an evergreen, versatile scaffold in medicinal chemistry: A review of its recent applications in drug design” (Eur J Med Chem, 2020).
